According to patent US4065575A, “3-Aminomethyl derivatives of 4-chromanone” (Joullie International, priority 1975, dated 1977):
“Also recorded” adds a separate entry of the source. Structures can show the parent of a compound that is named as a salt.

How the values were obtained:
[1] = Acute toxicity in mice (LD 50); assay type: in vivo; settings: mouse, in vivo, mice, 15 days observation
Experimental: (§1) The study is carried out on batches of 5 Swiss female mice of the NMRI Han. strain. The products are administered either intravenously (into the caudal vein) in solution in a 9 g..permill. sodium chloride solution, or orally (probang) in suspension in a 10% solution of gum arabic.
(§2) The animals are observed for the 15 days following the administration of the products.
(§3) The LD 50 values are calculated by the method of Karber and Behrens (Arch. Exp. Pathol. Pharm. 177, 1935, page 379).

[2] = system: mice; test: Acute toxicity in mice (LD 50); assay type: in vivo; settings: intravenous; in words
Experimental: as §1, §2, §3

[3] = system: isolated auricle of a rabbit; test: Peripheral vasomotoricity, isolated and perfused auricle of a rabbit
Experimental: The flow rate of the liquid issuing from the veins is recorded by electronic contact on a polygraph. The products to be studied are injected at increasing doses into the perfusion tube and their actions are compared to that of isoxsuprine used as the reference substance.
The results, collected in Table No. III, are expressed in the maximum percentage increase of the flow rate at the various doses used.

[4] = system: hypertensive effects of electrical stimulation, adrenaline and noradrenaline; test: α-Sympatholytic effects in amyeliated rats; assay type: in vivo; settings: for % variation of the hypertensive effects obtained with adrenaline: adrenaline 1.25 to 2.5 μg./kg.; for % variation of the hypertensive effects obtained with noradrenaline: noradrenaline 1.25 to 2.5 μg./kg.
Excerpt: The α-sympatholytic effects of LJ 1052 and LJ 1053 are compared with those of isoxsuprine in amyeliated rats which have been prepared by a method derived from those of Shipley and Tilden (Proc. soc. Exp. Biol. Med. 1947, 64, 453-455) and of Gillespie and Muir (Br. J. Pharmac. Chemother. 1967, 30, 78-87).
The effects on the blood pressure of electrical stimulation of the thoracolumbar sympathic nerve (rectangular signals = voltage 20 to 40 volts; width 2 m. sec; frequency 10 secs.; duration 5 to 10 secs.) and of injections of adrenaline (1.25 to 2.5 μg./kg.) and of noradrenaline (1.25 to 2.5 μg./kg.) are determined before and after injection of the products tested.

[5] = Cardiovascular action in dogs; assay type: in vivo, male Beagle dogs
Experimental: Male Beagle dogs weighing 9 to 12 kg. were anaesthetised by intrasaphenous injection of a 2% solution of chloralose in physiological solution, at a dose of 100 mg./kg.
The anaesthesia is maintained by slow perfusion of 5% pentobarbital (1.2 ml./hour).
The animals are tracheotomised and placed under assisted respiration by means of a Bird respirator. Their oxygenation and their acid-base equilibrium are controlled by determination of the pH, the pCO2 and the pO2 on blood samples taken from a collateral of the brachial artery (pH/gas analyser for blood, IL model 213/227).
The different parameters are recorded on a polygraph.

[6] = system: platelet aggregation; test: Anti-platelet-aggregation in vitro; assay type: cell-based; settings: in words
[7] = system: ADP platelet aggregation; test: ADP aggregation test; assay type: cell-based; settings: in words
[8] = dose 50 g./kg. (so in the source)
[9] = dose 100 g./kg. (so in the source)
[10] = dose 500 g./kg. (so in the source)
[11] = dose 2,500 g./kg. (so in the source)
[12] = 0.04 mg./kg. i.v. (1/1,000 LD 50)
[13] = 0.04 mg./kg. i.v. (1/1,000 LD 50), first or only phase

COCCNCC1COc2ccccc2C1=O (stereo not drawn) [LJ 1052, 3-(2-Methoxyethylaminomethyl)-4-chromanone hydrochloride]
LD50 at 360 h ([1]; intravenous administration): 47 mg/kg | LD50 at 360 h ([1]; oral administration): 475 mg/kg | intravenous LD 50 in mice (comparison of three products) [2]: practically identical | activation at 0.0001 mg ([3]; Oryctolagus cuniculus, dose 0.1 μg., read-out: Maximum variations in the flow rate): 79% | activation at 0.001 mg ([3]; Oryctolagus cuniculus, dose 1 μg., read-out: Maximum variations in the flow rate): 77% | activation at 0.01 mg ([3]; Oryctolagus cuniculus, dose 10 μg., read-out: Maximum variations in the flow rate): 100% | activation at 0.1 mg ([3]; Oryctolagus cuniculus, dose 100 μg., read-out: Maximum variations in the flow rate): 150% | duration of the effects / of the action ([3]; at the highest doses): ≥ 30 min | peripheral vasodilatory action ([3]; in words, hydrochloride): great; also recorded: as active as isoxsuprine; also recorded: great even at very low doses | % variation of the hypertensive effects obtained with electrical stimulation [4, 8]: 0% | % variation of the hypertensive effects obtained with adrenaline [4, 8]: -15% | % variation of the hypertensive effects obtained with noradrenaline [4, 8]: -11% | % variation of the hypertensive effects obtained with electrical stimulation [4, 9]: 0% | % variation of the hypertensive effects obtained with adrenaline [4, 9]: -28% | % variation of the hypertensive effects obtained with noradrenaline [4, 9]: -12% | % variation of the hypertensive effects obtained with electrical stimulation [4, 10]: -20% | % variation of the hypertensive effects obtained with adrenaline [4, 10]: -77% | % variation of the hypertensive effects obtained with noradrenaline [4, 10]: -38% | % variation of the hypertensive effects obtained with electrical stimulation [4, 11]: -80% | % variation of the hypertensive effects obtained with adrenaline [4, 11]: -77% | % variation of the hypertensive effects obtained with noradrenaline [4, 11]: -50% | α-sympatholytic effect, comparison ([4]; same doses, in words): less α-sympatholytic than LJ 1053 and isoxsuprine | Diastolic AP, duration of action [5, 12]: 2 min | Diastolic AP, maximum per cent variation [5, 12]: -29% | FF, duration of action [5, 12]: 30 min | Hb (heart beat), maximum per cent variation [5, 12]: +14% | Hb, duration of action [5, 12]: 25 min | LVP, duration of action [5, 12]: 25 min | Mean AP, duration of action [5, 12]: 2 min | Mean AP, maximum per cent variation [5, 12]: -25% | Systolic AP, duration of action [5, 12]: 30 min | Systolic AP, maximum per cent variation [5, 12]: +13% | LVP (left ventricular pressure), maximum per cent variation [5, 13]: +9% | dLVP/dt, maximum per cent variation [5, 13]: +34% | dLVP/dt, duration of action ([5]; 0.04 mg./kg. i.v. (1/1,000 LD 50), only phase): 30 min | cardiovascular action compared with isoxsuprine ([5]; in words): comparable to or even greater than that of isoxsuprine | femoral flow rate ([5]; low doses, in words): activity comparable to that of isoxsuprine | anti-platelet-aggregation properties [6]: marked anti-platelet-aggregation properties in vitro | anti-aggregation activity compared with adenosine [7]: almost as active as adenosine
